In EP0099121A2, “Pharmaceutical compositions” (Bristol-Myers Company, priority 1982, dated 1984):
Where two headings read alike, the source gives them in different places.

Legend:
[1] = test system: Gastric Acid Output; experiment: Gastric antisecretory activity in the Gastric Fistula Rat (Table 2 title: Two-Hour Pylorus Ligated Rat); assay type: in vivo, Long Evans rats; settings: numbers in parentheses are the 95% confidence limits
Procedure: Male Long Evans rats weighing about 240-260 grams at the time of cannula implantation are used. The design and implantation of the stainless steel cannula into the anterior wall of the fore-stomach are carried out essentially as described by Pare et al. [Laboratory Animal Science, 27, 244 (1977)]. The fistula components are designed and the operative procedure is carried out exactly as described in the above reference. Post operatively the animals are individually housed in solid bottom cages with sawdust and are allowed food and water ad libitum throughout the entire recovery period. Animals are not used for test purposes for at least 15 days after the operative procedure.
The animals are fasted but allowed water ad libitum for 20 hours before the testing procedure is to begin. Immediately prior to collection, the cannula is opened and the stomach washed gently with 30-40 mL of warm saline or distilled water to remove any residual contents. The catheter is then screwed into the cannula in place of the plugging screw and the rat is placed in a clear plastic rectangular cage measuring 40 cm long, 15 cm wide and 13 cm high. The bottom of the cage has a slit approximately 1.5 cm wide and 25 cm long running down the center to accommodate the catheter which hangs through it. In this way the rat is not restricted and can move freely about the cage during collection periods. The remainder of the assay is carried out as described by Ridley et al. [Research Comm. Chem. Path. Pharm., 17, 365 (1977)].
Gastric secretions collected during the first hour after washing the stomach are discarded as they may be contaminated. For oral evaluation, the catheter is then removed from the cannula and replaced with the plugging screw. Water (2 mL/kg) is administered orally via gastric intubation and the animal is returned to the cage for 45 minutes. After this time the plugging screw is removed and replaced with a catheter to which a small plastic vial has been attached to collect the gastric secretions. A two hour sample is collected (this represents the control secretion), the catheter removed and replaced with the plugging screw. The test drug is now administered orally in a volume of 2 mL/kg via gastric intubation. Forty-five minutes later the plugging screw is again removed, replaced with the catheter attached to a small plastic vial and another 2 hour sample is collected. The secretions in the second sample are compared to those of the control sample in order to determine the effects of the test drug.
When test compounds are to be evaluated parenterally, the animal is injected ip or sc with the test compound vehicle in a volume of 2 mL/kg immediately after discarding the initial 60 minute collection. A two hour sample is collected (control secretion) and the animals are injected either ip or sc with the test compound in a volume of 2 mL/kg. An additional two hour sample is collected and its secretions are compared to those of the control period to determing drug effects.
The samples are centrifuged in a graduated tube for volume determination. Titratable acidity is measured by titrating a one mL sample to pH 7.0 with 0.02N NaOH, using an Autoburet and an electrometric pH meter (Radiometer). Titratable acid output is calculated in microequivalents by multiplying the volume in milliliters by the acid concentration in milliequivalents per liter.
(§1) Results are expressed as percent inhibition relative to control readings. Dose response curves are constructed and ED values are calculated by regression analyses. At least three rats are used at each dosage level and a minimum of three dosage levels are utilized for determination of a dose response curve.

[2] = test system: acid output; experiment: Gastric antisecretory activity in the Heidenhain Pouch Dog; assay type: in vivo, dogs; settings: for Potency Ratio (cimetidine = 1.0): oral
Procedure: Prior to surgery, hematology and blood chemistry profiles are obtained and an assessment made as to the general health of selected female dogs. Dogs are vaccinated with Tissue Vax 5 (DHLP - Pitman-Moore) and housed in general animal quarters for four weeks' observation so incipient diseases may become apparent. Dogs are fasted with water ad libitum 24 hours prior to surgery.
Anesthesia is induced with Sodium Pentothal (Abbott) 25-30 mg/kg iv. Subsequent anesthesia is maintained with methoxy- flurane (Pitman-Moore). A mid-line linea alba incision from xiphoid to umbilicus provides good exposure and ease of closure. The stomach is pulled up into the operative field, the greater curvature stretched out at multiple points and clamps placed along the selected line of incision. The pouch is made from the corpus of the stomach so that true parietal cell juice is obtained. About 30% of the corpus volume is resected. The cannula is made of light-weight, biologically-inert material such as nylon or Delrin with dimensions and attachments after DeVito and Harkins [J. Appl. Physiol., 14, 138 (1959)]. Post operatively, dogs are medicated with antibiotics and an analgesic. They are allowed 2-3 months for recovery. Experiments are carried out in the following way: Dogs are fasted overnight (~18 hours) with water ad libitum prior to each experiment. The dogs are placed in a sling and a saphenous vein cannulated for drug administration. Histamine as the base (100 ug/kg/hr) and chlorpheniramine maleate (0.25 mg/kg/hr) are infused continuously (in a volume of 6 mL/hr) with a Harvard infusion pump.
Ninety minutes' infusion are allowed for the dogs to reach a steady state of acid output. At this time the drug or normal saline (control) is administered concomitantly with the secretagogue in a volume of 0.5 mL/kg over a 30 second period. When oral studies are to be carried out, the drug is administered via gastric gavage in a volume of 5 mL/kg. Infusion of the secretagogue is continued and 15 minute samples of.the gastric juice are taken for 4.5 hours. Each sample is measured to the nearest 0.5 mL and titratable acidity is determined by titrating a 1 mL sample to pH 7.0 with 0.2N NaOH, using an Autoburet and an electrometric pH meter (Radiometer). Titratable acid output is calculated in microequivalents by multiplying the volume in milliliters by the acid concentration in milliequivalents per liter.
as §1, with “and ED50” for “and ED”, “analyses. From 3 to 5 dogs” for “analyses. At least three rats”, “each dose” for “each dosage”

[3] = test system: gastric erosions; experiment: HCl-induced gastric erosions in rats, pretreatment with compound alone or with pepstatin; assay type: in vivo, Long Evans rats; settings: probit analysis
Procedure: Adult male, Long Evans rats weighing 280-300 g (Blue Spruce Farms, Alton, New York) were used. The animals were individually caged and food and water were removed 24 and 18 hours, respectively, prior to testing. On the following day, the test compound was administered orally to the animals 30 minutes before 1.0 mL of 0.75N HC1 was instilled into the stomach by gavage. Animals treated with the combination of the test compound and pepstatin received the test compound 30 minutes before, and a fixed amount of pepstatin (20 mg/kg po) 10 minutes before, the hydrochloric acid was administered. […] One hour after receiving the HC1 solution, the animals were sacrificed with an intraperitoneal injection of 0.2 mL of T-6r-, a euthanasia solution (National Laboratories Corp.).
The stomachs were photographed with a Polaroid" Close Up camera (Polaroid Corporation) and scoring was determined from the photographs. For scoring purposes, only those erosions with a minimum length of 1 mm were considered. The severity of gastric ulceration was defined for each animal as the sum of the maximum continuous lengths (in mm) of the erosions satisfying the above criteria. […]
Data were analyzed using the t-test for unpaired data and ED50 values were calculated from the dose response data using probit analysis [Finney, Probit Analysis, 3rd ed., University Press, Cambridge, England (1971)]. […]

[4] = test system: gastric secretion; experiment: Inhibition of gastric secretion by the oral route, rat; assay type: in vivo
[5] = test system: gastric secretion; experiment: Inhibition of gastric secretion by the oral route, dog; assay type: in vivo
[6] = test system: ulcer formation; settings: two or more days of pretreatment, single agent; cited from earlier work
[7] = test system: gastric acid secretion; settings: normal volunteers and patients with duodenal ulcer; cited from earlier work
[8] = test system: pepsin; settings: gastric ulcer; cited from earlier work
[9] = Rattus norvegicus, ip, Route of Administration i.p., read-out: ED50
[10] = Rattus norvegicus, sc, Route of Administration s.c., read-out: ED50

Compound | Potency Ratio (cimetidine = 1.0) [2] | ED50 [1, 10] [µmol/kg] | other results
CN(C)Cc1ccc(CSCCNC2=NS(=O)(=O)N=C2NCCSCc2ccc(CN(C)C)o2)o1 [11 B] | 11 |  | ED50 ([1]; Route of Administration i.p.): 0.69 (0.31-1.33) μmoles/kg
NC1=NS(=O)(=O)N=C1NCCCOc1cccc(CN2CCCC2)c1 [146 a] | ~20 |  | ED50 ([1]; Route of Administration s.c.): 0.023 (0.0091-0.046) μmoles/kg
CCNC1=NS(=O)(=O)N=C1NCCSCc1ccc(CN(C)C)o1 [Example 12, 3-{2-[(5-Dimethylaminomethyl-2-furyl)methylthio]ethyl-amino]-4-ethylamino-1,2,5-thiadiazole 1,1-dioxide] | 10 |  | ED50 [1, 9]: 0.28 µmol/kg
CNc1n[s+]([O-])nc1NCCSCc1ccc(CN(C)C)o1 (stereo not shown) [Example 18, 3-{2-[(5-Dimethylaminomethyl-2-furyl)methylthio]ethylamino}-4-methylamino-1,2,5-thiadiazole 1-oxide] | 18 | 0.38 | 
CNC1=NS(=O)(=O)N=C1NCCSCc1csc(NC(=N)N)n1 [Example 31, 3-{2-[(2-Guanidinothiazol-4-yl)methylthio)ethylamino}-4-methylamino-1,2,5-thiadiazole 1,1-dioxide] | 13 |  | ED50 [1, 9]: 0.41 µmol/kg
NC(N)=Nc1nc(CSCCNC2=NS(=O)(=O)N=C2N)cs1 [Example 35, 3-Amino-4-{2-[(2-guanidinothiazol-4-yli)methylthio]ethyl-amino}-1,2,5-thiadiazole 1,1-dioxide] | 20 | 0.08 | 
CNC1=NS(=O)(=O)N=C1NCCSCc1ccc(CN(C)C)s1 [Example 65, 3-{2-[(5-Dimethylaminomethyl-2-thienyl)methylthio]ethyl-amino}-4-methylamino-1,2,5-thiadiazole 1,I-dioxide] | 10 | 0.07 | 
CN(C)Cc1cccc(OCCCNc2n[s+]([O-])nc2N)c1 (stereo not shown) [Example 118, 3-Amino-4-[3-(3-dimethylaminomethylphenoxy)propylamino]-1,2,5-thiadiazole 1-oxide] | 10 | 0.066 | 
CNC1=NS(=O)(=O)N=C1NCCCOc1cccc(CN2CCCCC2)c1 [Example 132, 3-Methylamino-4-{3-(3-piperidinomethylphenoxy)propylamino] - 1,2,5-thiadiazole 1,1-dioxide] |  | 0.025 | 
NC1=NS(=O)(=O)N=C1NCCCOc1cccc(CN2CCCCC2)c1 [Example 134, 3-Amino-4-[3-(3-piperidinomethylphenoxy)propyiamino]-1,2,5-thiadiazole 1,1-dioxide] |  | 0.024 | 
CN(C)Cc1ccc(CSCCNC2=NS(=O)(=O)N=C2NCc2ccc3c(c2)OCO3)s1 [Example 135, 3-{2-[(5-Dimethylaminomethyl-2-thienyl)methylthio]ethylamino}-4-(3,4-methylenedioxybenzylamino)-1,2,5-thiadiazole 1,1-dioxide] |  | 0.57 | 
[O-][s+]1nc(NCCCOc2cccc(CN3CCCCC3)c2)c(NCc2cccnc2)n1 (stereo not shown) [Example 149, 3-[(3-Pyridyl)methylamino]-4-[3-(3-piperidinomethylphenoxy)-proavlamino]-1,2,5-thiadiazole1-oxide] | 10 | ~0.08 | 
Nc1n[s+]([O-])nc1NCCSCc1ccc(CN2CCCCC2)o1 (stereo not shown) [Example 151, 3-Amino-4-{2-.[(5-piperidinomethyl-2-furyl)methylthio]-ethylamino)-1,2,5-thiadiazole 1-oxide] |  | 0.9 | 
CNC(=C[N+](=O)[O-])NCCSCc1ccc(CN(C)C)o1 [Ranitidine, ranitidine] |  |  | ED50 ([3]; Rattus norvegicus, po, compound alone, orally 30 minutes before 1.0 mL of 0.75N HCl, read-out: ED50 (mg/kg) for Inhibition of Ulcer Formation Alone): 123 mg/kg; ED50 (mg/kg) for Inhibition of Ulcer Formation with Pepstatin ([3]; compound orally 30 minutes before and pepstatin 20 mg/kg po 10 minutes before HCl): 104 mg/kg; times as potent as cimetidine as an inhibitor of gastric secretion [4]: about 4 times; times as potent as cimetidine as an inhibitor of gastric secretion [5]: ~6 times
CC1(C)[C@@H](OC(=O)CCC(=O)O)CC[C@]2(C)[C@H]3C(=O)C=C4[C@@H]5C[C@@](C)(C(=O)O)CC[C@]5(C)CC[C@@]4(C)[C@]3(C)CC[C@@H]12 [carbenoxolone] |  |  | ulcer formation [6]: significantly decreased ulcer formation
CN/C(=N/CCSCc1nc[nH]c1C)NC#N [cimetidine] |  |  | ED50 ([2]; Canis lupus familiaris, po, read-out: oral ED50): ~3.3 µmol/kg; ulcer formation [6]: significantly decreased ulcer formation; basal and stimulated gastric acid secretion [7]: antagonize both basal and stimulated gastric acid secretion
sucralfate |  |  | benefit in patients with gastric ulcer [8]: none
